# Laboratory results published in PMC6131691 (Chirality, 2012).
# Like-named read-outs stand apart in the source and are kept apart here. Marks after values point to notes of the source that are not given here.
# Assays:
# [1] = system: human intestinal S9 fractions (mixture of SULT enzymes); test: Kinetics of sulfation of MF stereoisomers by human intestinal S9 fractions; settings: read-out: Km (Michaelis constant) of sulfation; human intestinal S9 1 mg/ml, 200 µM PAPS, pH 7.4, 60 min; mean ± SE
# 1321N1 tumors = settings: tumors implanted in the flank of SKID mice; cited from earlier work
# [2] = system: human-derived 1321N1 astrocytoma cells; settings: read-out: IC50, inhibition of mitogenesis; cited from earlier work
# SULT isoforms = test: cDNA-expressed SULT isoform screen, comparison of stereoisomers across isoforms; assay type: in vitro ADME, human; settings: in each of the SULT isoforms
# SULT1A3 [3] = test: cDNA-expressed SULT isoform screen, SULT1A3; settings: relative to SULT1A1*1, SULT1A1*2, SULT1E1
# [4] = system: human intestinal S9 fractions (mixture of SULT enzymes); settings: pH 7.4
# [5] = system: human intestinal S9 fractions (mixture of SULT enzymes); settings: for Reduction of (R,R)-MF conjugation at equimolar concentrations: equimolar with 50 µM [3H]-(R,R)-MF
# β2-AR = settings: relative to (R,R)-MF; ref unpublished data; cited from earlier work
# SULT1A3 [6] = system: SULT1A3
# [7] = humans; cited from earlier work
structure (smiles),measurement,setting,value
"COc1ccc(C[C@@H](C)NC[C@H](O)c2cc(O)cc(O)c2)cc1 [(R,R)-MF, (R,R)-4-methoxyfenoterol]",Km,[1],62 ± 1.27 µM
same,Growth of 1321N1 tumors,1321N1 tumors,retards the growth
same,IC50,[2],0.00017 µM
same,"Sulfation rate compared with (S,S)-MF, (R,S)-MF and (S,R)-MF",SULT isoforms,significantly (P < 0.0001) lower
same,"SULT1A3-mediated conjugation, greater than the sulfation by the other isoforms",SULT1A3 [3],1.5- to 2 fold
"COc1ccc(CC(C)NCC(O)c2cc(O)cc(O)c2)cc1 [(R,S)-MF, 4-methoxyfenoterol]",Km,[4],68.5 ± 3.2 µM
same,IC50,[5],> 400 µM
same,"Reduction of (R,R)-MF conjugation at equimolar concentrations",[5]; human intestinal S9,little effect
same,"SULT1A1*1-catalyzed sulfation, greater than SULT1A3 and SULT1E1",SULT1A1*1,1.5 fold
same,"SULT1A1*2-catalyzed sulfation, greater than SULT1A3 and SULT1E1",SULT1A1*2,1.5 fold
"COc1ccc(CC(C)NCC(O)c2cc(O)cc(O)c2)cc1 [(S,S)-MF, 4-methoxyfenoterol]","Activity of SULT1E1, lower than SULT1A1*1, SULT1A1*2 and SULT1A3",SULT1E1,1.3 fold
same,Km,[4],89 µM
same,Km (Michaelis constant) of sulfation,[4],89.21 ^a ± 2.59 µM
same,IC50,[5],> 200 µM
same,"Reduction of (R,R)-MF conjugation at equimolar concentrations",[5]; human intestinal S9,little effect
"COc1ccc(CC(C)NCC(O)c2cc(O)cc(O)c2)cc1 [(S,R)-MF, 4-methoxyfenoterol]","β2-AR agonist activity as share of that of (R,R)-MF",β2-AR,less than 5%
same,Km,[4],52 µM
same,"Reduction in the production of (R,R)-MF sulfate","[5]; 2:1 ratio of (S,R)-MF/(R,R)-MF, human intestinal S9",61%
same,"Reduction of (R,R)-MF conjugation at equimolar concentrations",[5]; human intestinal S9,~ 40%
same,"SULT1A3-mediated conjugation, greater than the sulfation by the other isoforms",SULT1A3 [6],1.5- to 2 fold
"CC(Cc1ccc(O)cc1)NCC(O)c1cc(O)cc(O)c1 [(R,R;S,S)-Fen, fenoterol]",Oral bioavailability,[7],~ 2%
